Experimental data from the supplement of paper PMC8741786.
≈ marks a conversion by molar mass, not a printed value.

Tested on: Neisseria subflava/flavescens/perflava
Experiment: minimum inhibitory concentration (ETEST)
Settings: population: general population, antibiotic use in previous 6 months: No
Method: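 Oropharyngeal Neisseria isolates from MSM and employees in Belgium were identified to species by MALDI-TOF MS. MICs of azithromycin, ceftriaxone and ciprofloxacin were determined by ETEST on GC agar after 24 h at 36.5 °C and 5-7% CO2, in mg/L. Values beyond the strip range are reported as >256 (azithromycin) or <0.016 (ceftriaxone); isolates that did not grow are NA.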

O=C(O)c1cn(C2CC2)c2cc(N3CCNCC3)c(F)cc2c1=O [ciprofloxacin]
Settings | minimum inhibitory concentration [µg/mL]
isolate id (sample isolate): Co000765_4 | 0.012 (≈ 0.0362 µM)
isolate id (sample isolate): Co000766_1 | 0.047 (≈ 0.142 µM)
isolate id (sample isolate): Co000766_3 | 0.008 (≈ 0.0241 µM)
isolate id (sample isolate): Co000767_1 | 0.008 (≈ 0.0241 µM)
isolate id (sample isolate): Co000767_2 | 1 (≈ 3.02 µM)
isolate id (sample isolate): Co000767_4 | 0.016 (≈ 0.0483 µM)
isolate id (sample isolate): Co000767_5 | 0.38 (≈ 1.15 µM)
isolate id (sample isolate): Co000767_6 | 0.006 (≈ 0.0181 µM)
isolate id (sample isolate): Co000767_7 | 0.38 (≈ 1.15 µM)
isolate id (sample isolate): Co000768_1 | 0.006 (≈ 0.0181 µM)
isolate id (sample isolate): Co000768_2 | 0.008 (≈ 0.0241 µM)
isolate id (sample isolate): Co000769_1 | 0.5 (≈ 1.51 µM)
isolate id (sample isolate): Co000769_2 | 0.008 (≈ 0.0241 µM)
isolate id (sample isolate): Co000769_4 | 0.5 (≈ 1.51 µM)
isolate id (sample isolate): Co000770_2 | 0.25 (≈ 0.754 µM)
isolate id (sample isolate): Co000770_4 | 0.5 (≈ 1.51 µM)
isolate id (sample isolate): Co000770_6 | 0.047 (≈ 0.142 µM)
isolate id (sample isolate): Co000771_2 | 1 (≈ 3.02 µM)
isolate id (sample isolate): Co000771_3 | 0.006 (≈ 0.0181 µM)
isolate id (sample isolate): Co000771_5 | 0.016 (≈ 0.0483 µM)
isolate id (sample isolate): Co000772_1 | 0.023 (≈ 0.0694 µM)
isolate id (sample isolate): Co000772_2 | 0.016 (≈ 0.0483 µM)
isolate id (sample isolate): Co000772_4 | 0.016 (≈ 0.0483 µM)
isolate id (sample isolate): Co000772_5 | 0.012 (≈ 0.0362 µM)
isolate id (sample isolate): Co000772_6 | 0.008 (≈ 0.0241 µM)
isolate id (sample isolate): Co000773_1 | 0.38 (≈ 1.15 µM)
isolate id (sample isolate): Co000773_2 | 0.38 (≈ 1.15 µM)
isolate id (sample isolate): Co000774_2 | 0.047 (≈ 0.142 µM)
isolate id (sample isolate): Co000775_1 | 1 (≈ 3.02 µM)
isolate id (sample isolate): Co000775_2 | 0.016 (≈ 0.0483 µM)
isolate id (sample isolate): Co000775_3 | 0.25 (≈ 0.754 µM)
isolate id (sample isolate): Co000776_2 | 0.047 (≈ 0.142 µM)
isolate id (sample isolate): Co000776_3 | 0.047 (≈ 0.142 µM)
isolate id (sample isolate): Co000777_1 | 1 (≈ 3.02 µM)
isolate id (sample isolate): Co000777_2 | 0.5 (≈ 1.51 µM)
isolate id (sample isolate): Co000777_4 | 2 (≈ 6.04 µM)
isolate id (sample isolate): Co000778_1 | 0.012 (≈ 0.0362 µM)
isolate id (sample isolate): Co000778_2 | > 32
isolate id (sample isolate): Co000778_3 | 0.012 (≈ 0.0362 µM)
isolate id (sample isolate): Co000780_4 | 0.75 (≈ 2.26 µM)
isolate id (sample isolate): Co000781_1 | 0.5 (≈ 1.51 µM)
isolate id (sample isolate): Co000781_3 | 2 (≈ 6.04 µM)
isolate id (sample isolate): Co000781_4 | 0.75 (≈ 2.26 µM)
isolate id (sample isolate): Co000782_2 | 0.016 (≈ 0.0483 µM)
isolate id (sample isolate): Co000782_3 | 0.012 (≈ 0.0362 µM)
isolate id (sample isolate): Co000782_4 | 0.023 (≈ 0.0694 µM)
isolate id (sample isolate): Co000783_1 | 0.064 (≈ 0.193 µM)
isolate id (sample isolate): Co000783_2 | 0.094 (≈ 0.284 µM)
isolate id (sample isolate): Co000783_5 | 0.012 (≈ 0.0362 µM)
isolate id (sample isolate): Co000784_1 | 0.023 (≈ 0.0694 µM)
isolate id (sample isolate): Co000784_2 | 0.75 (≈ 2.26 µM)
isolate id (sample isolate): Co000784_5 | 0.023 (≈ 0.0694 µM)
isolate id (sample isolate): Co000785_1 | 0.016 (≈ 0.0483 µM)
isolate id (sample isolate): Co000785_2 | 0.25 (≈ 0.754 µM)
isolate id (sample isolate): Co000785_3 | 0.125 (≈ 0.377 µM)
isolate id (sample isolate): Co000785_4 | 0.012 (≈ 0.0362 µM)
isolate id (sample isolate): Co000786_1 | 0.047 (≈ 0.142 µM)
isolate id (sample isolate): Co000786_2 | 0.016 (≈ 0.0483 µM)
isolate id (sample isolate): Co000787_1 | > 32
isolate id (sample isolate): Co000787_2 | 0.023 (≈ 0.0694 µM)
isolate id (sample isolate): Co000787_4 | 0.023 (≈ 0.0694 µM)
isolate id (sample isolate): Co000788_2 | 0.25 (≈ 0.754 µM)
isolate id (sample isolate): Co000788_3 | 0.016 (≈ 0.0483 µM)
isolate id (sample isolate): Co000788_5 | 0.19 (≈ 0.573 µM)
isolate id (sample isolate): Co000789_1 | 0.016 (≈ 0.0483 µM)
isolate id (sample isolate): Co000790_2 | 0.006 (≈ 0.0181 µM)
isolate id (sample isolate): Co000790_4 | 0.006 (≈ 0.0181 µM)
